Laboratory results published in US20200338084A1, “INHIBITORS OF LOW MOLECULAR WEIGHT PROTEIN TYROSINE PHOSPHATASE (LMPTP) AND USES THEREOF” (Sanford Burnham Prebys Medical Discovery Institute, priority 2018, published 2020).

molecular target: T1, human LMPTP-A (Homo sapiens, UniProt P24666); test: Enzyme Assay of Inhibition of LMPTP-A; type: biochemical; conditions: phosphatase assay, OMFP or pNPP substrate, 50 mM Bis-Tris pH 6.0, 37° C.
T1 sequence (P24666 1-158): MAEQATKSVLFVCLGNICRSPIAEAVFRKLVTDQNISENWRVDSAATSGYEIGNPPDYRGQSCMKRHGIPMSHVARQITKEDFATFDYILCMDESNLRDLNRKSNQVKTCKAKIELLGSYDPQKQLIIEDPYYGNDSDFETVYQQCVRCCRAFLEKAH
Method in brief: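 Recombinant human LMPTP-A in 50 mM Bis-Tris pH 6.0, 1 mM DTT, 0.01% Triton X-100 at 37° C. Substrate OMFP read continuously by fluorescence (485/525 nm), or pNPP stopped with NaOH and read at 405 nm. IC50 taken from inhibitor concentration versus % activity plots.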

`Nc1ncn(Cc2c(Cl)cccc2Cl)c2nc(-c3ccc(F)c(F)c3)nc1-2` [3-[(2,6-dichlorophenyl)methyl]-8-(3,4-difluorophenyl)-3-hydropurine-6-ylamine] and `Nc1ncn(Cc2c(Cl)cccc2Cl)c2nc(-c3ccc4scnc4c3)nc1-2` [8-Benzothiazol-5-yl-3-[(2,6-dichlorophenyl)methyl]-3-hydropurine-6-ylamine] cannot be ordered by IC50: ≤ 1000 nM for the first, ≤ 1000 nM for the second.

`Nc1ncn(Cc2c(Cl)cccc2Cl)c2nc(C(F)F)nc1-2` [3-[(2,6-dichlorophenyl)methyl]-8-(difluoromethyl)-3-hydropurine-6-ylamine] and `N#Cc1ccc(-c2nc3c(N)ncn(Cc4c(Cl)cccc4Cl)c-3n2)s1` [5-(6-amino-3-(2,6-dichlorobenzyl)-3H-purin-8-yl)thiophene-2-carbonitrile] cannot be ordered by IC50: 1000 to 20000 nM for the first, ≤ 1000 nM for the second.

`Nc1ncn(Cc2c(Cl)cccc2Cl)c2nc(CCc3ccc(F)cc3)nc1-2` [3-[(2,6-dichlorophenyl)methyl]-8-[2-(4-fluorophenyl)ethyl]-3-hydropurine-6-ylamine] and `Nc1ncn(Cc2c(Cl)cccc2Cl)c2nc(Cc3ccc(F)cc3)nc1-2` [3-[(2,6-dichlorophenyl)methyl]-8-[(4-fluorophenyl)methyl]-3-hydropurine-6-ylamine] cannot be ordered by IC50: ≤ 1000 nM for the first, ≤ 1000 nM for the second.

`Cc1ccccc1Cc1nc2c(N)ncn(Cc3c(Cl)cccc3Cl)c-2n1` [3-[(2,6-dichlorophenyl)methyl]-8-[(2-methylphenyl)methyl]-3-hydropurine-6-ylamine] and `COc1ccc(Cc2nc3c(N)ncn(Cc4c(Cl)cccc4Cl)c-3n2)cc1` [3-[(2,6-dichlorophenyl)methyl]-8-[(4-methoxyphenyl)methyl]-3-hydropurine-6-ylamine] cannot be ordered by IC50: ≤ 1000 nM for the first, ≤ 1000 nM for the second.

`Nc1ncn(Cc2c(Cl)cccc2Cl)c2nc(COc3ccc(Br)cc3)nc1-2` [3-[(2,6-dichlorophenyl)methyl]-8-[(4-bromophenoxy)methyl]-3-hydropurine-6-ylamine] and `Nc1ncn(Cc2c(Cl)cccc2Cl)c2nc(Cc3ccc(C(F)(F)F)cc3)nc1-2` [3-[(2,6-dichlorophenyl)methyl]-8-{[4-(trifluoromethyl)phenyl]methyl}-3-hydropurine-6-ylamine] cannot be ordered by IC50: ≤ 1000 nM for the first, ≤ 1000 nM for the second.

`Nc1ncn(Cc2c(Cl)cncc2Cl)c2nc(-c3ccccc3)nc1-2` [3-[(3,5-Dichloro(4-pyridyl))methyl]-8-phenyl-3-hydropurine-6-ylamine] and `N#Cc1cccc(-c2nc3c(N)ncn(Cc4c(Cl)cccc4Cl)c-3n2)c1` [3-{6-Amino-3-[(2,6-dichlorophenyl)methyl]-3-hydropurin-8-yl}benzenecarbonitrile] cannot be ordered by IC50: ≤ 1000 nM for the first, ≤ 1000 nM for the second.

`Nc1ncn(Cc2c(Br)cncc2Br)c2ncnc1-2` [3-[(3,5-dibromo-4-pyridyl)methyl]-3-hydropurine-6-ylamine] and `Nc1ncn(Cc2c(Br)ccnc2Cl)c2ncnc1-2` [3-[(4-bromo-2-chloro-3-pyridyl)methyl]-3-hydropurine-6-ylamine] cannot be ordered by IC50: ≤ 1000 nM for the first, 1000 to 20000 nM for the second.

`Nc1ncn(Cc2ccncc2Cl)c2ncnc1-2` [3-[(3-chloro-4-pyridyl)methyl]-3-hydropurine-6-ylamine] and `Nc1ncn(Cc2c(Cl)ccnc2F)c2ncnc1-2` [3-[(4-chloro-2-fluoro-3-pyridyl)methyl]-3-hydropurine-6-ylamine] fall in the same range of IC50: 1000 to 20000 nM for the first, 1000 to 20000 nM for the second.

`Cn1ncc(Br)c1Cn1cnc(N)c2ncnc1-2` [3-[(4-bromo-1-methylpyrazol-5-yl)methyl]-3-hydropurine-6-ylamine] and `Nc1ncn(Cc2ccccc2)c2ncnc1-2` [3-benzyl-3-hydropurine-6-ylamine, 3-Benzyl-3-hydropurine-6-ylamine] cannot be ordered by IC50: ≤ 1000 nM for the first, 1000 to 20000 nM for the second.

`CN(C)C(=O)c1ccc(Nc2ncn(Cc3c(Cl)cccc3Cl)c3ncnc2-3)cc1` [4-((3-(2,6-Dichlorobenzyl)-3H-purin-6-yl)amino)-N,N-dimethylbenzamide] and `O=C(O)c1ccc(Nc2ncn(Cc3c(Cl)cccc3Cl)c3ncnc2-3)cc1` [4-({3-[(2,6-Dichlorophenyl)methyl]-3-hydropurin-6-yl}amino)benzoic acid] fall in the same range of IC50: 1000 to 20000 nM for the first, 1000 to 20000 nM for the second.

`N#Cc1ccc(Cn2cnc(N)c3ncnc2-3)cc1` [4-((6-amino-3H-purin-3-yl)methyl)benzonitrile] and `N#Cc1ccc(Cn2cnc(NCc3ccco3)c3ncnc2-3)cc1` [4-{6-[(Furan-2-ylmethyl)-amino]-purin-3-ylmethyl}-benzonitrile] cannot be ordered by IC50: 1000 to 20000 nM for the first, ≥ 20000 nM for the second.

`N#Cc1ccc(Nc2ncn(Cc3c(Cl)cccc3Cl)c3ncnc2-3)cc1` [4-({3-[(2,6-Dichlorophenyl)methyl]-3-hydropurin-6-yl}amino)benzenecarbonitrile] and `Oc1ccc(Nc2ncn(Cc3c(Cl)cccc3Cl)c3ncnc2-3)cc1` [4-({3-[(2,6-Dichlorophenyl)methyl]-3-hydropurin-6-yl}amino)phenol] fall in the same range of IC50: 1000 to 20000 nM for the first, 1000 to 20000 nM for the second.

`N#Cc1ccc(CNc2ncn(Cc3c(Cl)cccc3Cl)c3ncnc2-3)cc1` [4-[({3-[(2,6-dichlorophenyl)methyl]-3-hydropurin-6-yl}amino)methyl]benzenecarbonitrile] and `Clc1ccc(CNc2ncn(Cc3c(Cl)cccc3Cl)c3ncnc2-3)cc1` [N-(4-chlorobenzyl)-3-(2,6-dichlorobenzyl)-3h-purin-6-amine] fall in the same range of IC50: 1000 to 20000 nM for the first, 1000 to 20000 nM for the second.

`N#Cc1ccc(-c2nc3c(N)ncn(Cc4c(Cl)cccc4Cl)c-3n2)cc1` [4-{6-Amino-3-[(2,6-dichlorophenyl)methyl]-3-hydropurin-8-yl}benzenecarbonitrile] and `Nc1ncn(Cc2c(Cl)cccc2Cl)c2nc(-c3ccc4ocnc4c3)nc1-2` [8-Benzoxazol-5-yl-3-[(2,6-dichlorophenyl)methyl]-3-hydropurine-6-ylamine] cannot be ordered by IC50: ≤ 1000 nM for the first, ≤ 1000 nM for the second.

`Nc1ncn(Cc2c(Cl)cccc2Cl)c2nc(C3CCS(=O)(=O)CC3)nc1-2` [4-{6-Amino-3-[(2,6-dichlorophenyl)methyl]-3-hydropurin-8-yl}thiane-1,1-dione] and `Nc1ncn(Cc2c(Cl)cccc2Cl)c2nc(C3C4CC5CC(C4)CC3C5)nc1-2` (stereo not shown) [8-Adamantan-2-yl-3-[(2,6-dichlorophenyl)methyl]-3-hydropurine-6-ylamine] cannot be ordered by IC50: ≤ 1000 nM for the first, ≤ 1000 nM for the second.

`Nc1ncn(Cc2c(Cl)cccc2Cl)c2nc(/C=C/c3ccccc3)nc1-2` [8-((1E)-2-Phenylvinyl)-3-[(2,6-dichlorophenyl)methyl]-3-hydropurine-6-ylamine] and `Clc1cccc(Cl)c1Cn1cnc(NCc2ccccc2)c2ncnc1-2` [Benzyl-[3-(2,6-dichloro-benzyl)-3H-purin-6-yl]-amine] cannot be ordered by IC50: ≤ 1000 nM for the first, 1000 to 20000 nM for the second.

`Clc1cccc(Nc2ncn(Cc3c(Cl)cccc3Cl)c3ncnc2-3)c1Cl` [(2,3-Dichlorophenyl){3-[(2,6-dichlorophenyl)methyl](3-hydropurin-6-yl)}amine] and `Cc1c(Cl)cccc1Nc1ncn(Cc2c(Cl)cccc2Cl)c2ncnc1-2` [N-(3-Chloro-2-methylphenyl)-3-(2,6-dichlorobenzyl)-3H-purin-6-amine] fall in the same range of IC50: 1000 to 20000 nM for the first, 1000 to 20000 nM for the second.

`NCCNc1ncn(Cc2c(Cl)cccc2Cl)c2ncnc1-2` [(2-Aminoethyl){3-[(2,6-dichlorophenyl)methyl](3-hydropurin-6-yl)}amine] and `NCCCCNc1ncn(Cc2c(Cl)cccc2Cl)c2ncnc1-2` [(4-Aminobutyl){3-[(2,6-dichlorophenyl)methyl](3-hydropurin-6-yl)}amine] cannot be ordered by IC50: ≥ 20000 nM for the first, 1000 to 20000 nM for the second.

`c1ccc(-n2cnc(NCc3ccco3)c3ncnc2-3)cc1` [(2-Furylmethyl)(3-phenyl(3-hydropurin-6-yl))amine] and `Cc1ccccc1Cn1cnc(NCc2ccco2)c2ncnc1-2` [Furan-2-ylmethyl-[3-(2-methyl-benzyl)-3H-purin-6-yl]-amine] cannot be ordered by IC50: ≥ 20000 nM for the first, ≥ 20000 nM for the second.

`CCCCNc1ncn(Cc2c(Cl)cccc2Cl)c2ncnc1-2` [Butyl-[3-(2,6-dichloro-benzyl)-3H-purin-6-yl]-amine] and `CS(=O)(=O)Nc1ncn(Cc2c(Cl)cccc2Cl)c2ncnc1-2` [N-(3-(2,6-dichlorobenzyl)-3h-purin-6-yl)methanesulfonamide] cannot be ordered by IC50: 1000 to 20000 nM for the first, ≥ 20000 nM for the second.

`Clc1cccc(Cl)c1Cn1cnc(NC2CC2)c2ncnc1-2` [Cyclopropyl-[3-(2,6-dichloro-benzyl)-3H-purin-6-yl]-amine] and `O=C(Nc1ncn(Cc2c(Cl)cccc2Cl)c2ncnc1-2)c1ccco1` [Furan-2-carboxylicacid [3-(2,6-dichloro-benzyl)-3H-purin-6-yl]-amide] fall in the same range of IC50: 1000 to 20000 nM for the first, 1000 to 20000 nM for the second.

`Fc1ccc(F)c(Cn2cnc(NCc3ccco3)c3ncnc2-3)c1F` [Furan-2-ylmethyl-[3-(2,3,6-trifluoro-benzyl)-3H-purin-6-yl]-amine] and `COc1ccccc1Cn1cnc(NCc2ccco2)c2ncnc1-2` [Furan-2-ylmethyl-[3-(2-methoxy-benzyl)-3H-purin-6-yl]-amine] cannot be ordered by IC50: ≥ 20000 nM for the first, ≥ 20000 nM for the second.

`COc1ccc(Cn2cnc(NCc3ccco3)c3ncnc2-3)cc1` [Furan-2-ylmethyl-[3-(4-methoxy-benzyl)-3H-purin-6-yl]-amine] and `COC(=O)c1ccc(Nc2ncn(Cc3c(Cl)cccc3Cl)c3ncnc2-3)cc1` [Methyl 4-({3-[(2,6-dichlorophenyl)methyl]-3-hydropurin-6-yl}amino)benzoate] cannot be ordered by IC50: ≥ 20000 nM for the first, 1000 to 20000 nM for the second.

`COC(=O)c1cccc(Nc2ncn(Cc3c(Cl)cccc3Cl)c3ncnc2-3)c1` [Methyl 3-({3-[(2,6-dichlorophenyl)methyl]-3-hydropurin-6-yl}amino)benzoate] and `CN(C)c1ccc(Nc2ncn(Cc3c(Cl)cccc3Cl)c3ncnc2-3)cc1` [N1-(3-(2,6-dichlorobenzyl)-3H-purin-6-yl)-N4,N4-dimethylbenzene-1,4-diamine] fall in the same range of IC50: 1000 to 20000 nM for the first, 1000 to 20000 nM for the second.

`Clc1cccc(Cl)c1Cn1cnc(Nc2cccc(OCc3ccccc3)c2)c2ncnc1-2` [N-(3-(benzyloxy)phenyl)-3-(2,6-dichlorobenzyl)-3H-purin-6-amine] was tested, and the IC50 was 1000 to 20000 nM.
